Experiments:
VEGF-A = molecular target: T1, VEGF-A (Homo sapiens, UniProt P15692); assay: VEGF-A/heparin competition assay by SPR (Biacore); format: binding; conditions: 10 nM VEGF-A, biotinylated low molecular weight heparin, Sensorchip SA
T1 sequence (P15692 27-191 isoform P15692-4): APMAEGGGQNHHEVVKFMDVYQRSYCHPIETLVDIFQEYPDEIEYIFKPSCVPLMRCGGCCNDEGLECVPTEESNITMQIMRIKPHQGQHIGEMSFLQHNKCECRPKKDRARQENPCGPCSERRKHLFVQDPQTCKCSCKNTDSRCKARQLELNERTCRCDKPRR
Procedure: (§1) Heparin or low molecular weight heparin (6 kDa) from SIGMA were biotinylated at the reducing end and immobilized on a Biacore sensorchip. Different concentrations of the compounds of the present invention were co-incubated at a fixed concentration of targets: FGF-2, PDGF-β, VEGF-A or SDF-1α for 30 minutes. The mixture was then injected onto the streptavidin control (control reference) and HP surfaces. Only free growth factor (GF) or chemokine, i.e. the target molecules not bound to compounds of the present invention, were trapped on the heparin surface. From the binding of free targets on heparin, the percentages of inhibition were calculated and then reported in function of compound concentrations. The plot was fitted with a four-parameter model and IC50 was calculated. The 0% inhibition value was obtained for the injection of the studied target in running-buffer, and the 100% inhibition value was obtained for the injection of the studied target co-incubated with 10 μM of low molecular weight heparin 6 kDa.
A VEGF-A/heparin competition assay using the Biacore technology was performed using the following conditions: 10 nM VEGF-A, biotinylated low molecular weight heparin, Reference Streptavidin, Sensorchip SA, HBS-P, Regeneration NaCl 2M.
(§2) IC50 values of compounds of the present invention were determined using the Biacore technology for the growth factor and chemokine/heparin competition assays that contained the following proteins: VEGF-A, SDF-1α, FGF-2 and PDGF-β.

FGF-2 = FGF-2 (Homo sapiens, UniProt P09038); assay: FGF-2/heparin competition assay by SPR (Biacore); format: binding; conditions: 10 nM FGF-2, biotinylated heparin, Sensorchip C1
Procedure: as §1
A FGF-2/heparin competition assay using the Biacore technology was performed in the following conditions: 10 nM FGF-2, biotinylated heparin, Reference Streptavidin, Sensorchip C1, PBS-T 0.02%, Regeneration NaCl 2M
as §2

SDF-1α = SDF-1α (Homo sapiens, UniProt P48061); assay: SDF-1α/heparin competition assay by SPR (Biacore); format: binding; conditions: 96 nM SDF-1α, biotinylated low molecular weight heparin (6 kDa), Sensorchip SA
Procedure: as §1
A SDF-1α/heparin competition assay using the Biacore technology was performed using the following conditions: 96 nM SDF-1α, biotinylated low molecular weight heparin (6 kDa), Reference Streptavidin, Sensorchip SA, HBS-P, Regeneration NaCl 2M
as §2

PDGF-β = PDGF-β (Homo sapiens, UniProt P01127); assay: PDGF-β/heparin competition assay by SPR (Biacore); format: binding; conditions: 10 nM PDGF-β, biotinylated heparin, Sensorchip C1
Procedure: as §1, with “kDa. A PDGF-β/heparin competition assay using the Biacore technology was performed using the following conditions: 10 nM PDGF-β, biotinylated heparin, Reference Streptavidin, Sensorchip C1, HBS-P, Regeneration NaCl 2M. IC50 values of compounds of the present invention were determined using the Biacore technology for the growth factor and chemokine/heparin competition assays that contained the following proteins: VEGF-A, SDF-1α, FGF-2 and PDGF-β.” for “kDa.”

[1] = tested on: control and VEGF-A-stimulated angiogenesis (endothelial tubules, HUVEC/NHDF co-culture); assay: In vitro angiogenesis assay (endothelial tubule formation, AngioKit); format: cell-based, human; conditions: 30 μM compound; anti-CD31 ELISA and AngioSys image analysis; FIGS. 13-15
From the text: These experiments are also known as endothelial tubule formation assays and they are used to evaluate the compound effects on in vitro angiogenesis (the neo-formation of blood vessels from pre-existing ones). This process is critical in tumour development as bloodstream brings all the necessary nutrients and oxygen to cancer cells.
The assay uses a commercially available product (AngioKit) specially designed for screening experiments. The product consists of a 24 or 96-well culture plate containing endothelial and fibroblast cells. A similar assay has been developed “in-house” using 48-well culture plates.
Endothelial cells will, on a ten-day period, develop into a branched network of endothelial tubules or “primitive” blood vessels. This process requires a co-culture with fibroblasts, these latter cells secreting essential growth factors for endothelial cells. At the end of the incubation period (about ten days), angiogenesis is monitored both by ELISA and image analysis software quantifying different blood vessel parameters (number and average length of tubules, field area, number of junctions for example). All reagents and material (except the oligosaccharide compounds, the VEGF-A and the 48-well plate AngioKits) are bought from TCS CellWorks (http://www.tcscellworks.co.uk) which provides: • 24 and 96-well plate AngioKits (including culture medium) • Anti-CD31 (a cell marker specifically expressed on endothelial cells) reagents for ELISA and tubule staining procedures. • AngioSys image analysis software
For home-made 48-well plate AngioKits, NHDF and HUVEC cells were independently purchased while TCS CellWorks culture medium and protocol were used.
The cell medium is replaced with fresh one (day 1) and cells are incubated at 37° C. with the compounds of interest (oligosaccharides and/or angiogenic proteins, such as growth factors). During the course of the experiment, the culture medium (including oligosaccharides and/or angiogenic proteins) is replaced at days 4 and 7.
At day 10, the assay is terminated by the labelling of endothelial cells by an ELISA procedure (indirect colorimetric titration of the endothelial cell number through dosage of the endothelial-specific CD31 marker) and the staining of endothelial tubules. Photographs of stained tubules are taken and analysed with the AngioSys image analysis software.
In the following assay the effects of compounds 239, 240, 246, 247, 248, 249, 252, 254, 255 and 257 on in vitro angiogenesis were measured (all compounds were added at the 30 μM concentration). […] For the data presented in FIG. 13, AngioSys image analyses are shown on FIG. 14. Photographs of endothelial tubules are shown on the side of the anti-CD31 ELISA (see FIGS. 13 and 15).

Row | SMILES | IC50 (VEGF-A) [nM] | IC50 (FGF-2) [nM] | IC50 (SDF-1α) [nM] | IC50 (PDGF-β) [nM] | inhibition of control and/or VEGF-A-stimulated angiogenesis [1]
1 | C#CCCCOC1OC(COS(=O)(=O)O)C(OC2OC(C(=O)O)C(OC3OC(COS(=O)(=O)O)C(OC4OC(C(=O)O)C(OCc5ccccc5)C(OCc5ccccc5)C4OS(=O)(=O)O)C(OCc4ccccc4)C3NS(=O)(=O)O)C(OCc3ccccc3)C2OS(=O)(=O)O)C(OCc2ccccc2)C1NS(=O)(=O)O (stereo not shown) [Compound 236] | 310 | 187 | 3600 | 1350 | 
2 | C#CCCCOC1OC(COS(=O)(=O)[O-])C(OC2OC(C(=O)[O-])C(OC3OC(COS(=O)(=O)[O-])C(OC4OC(C(=O)[O-])C(OC5OC(COS(=O)(=O)[O-])C(OC6OC(C(=O)[O-])C(OCc7ccccc7)C(OCc7ccccc7)C6OS(=O)(=O)[O-])C(OCc6ccccc6)C5NS(=O)(=O)[O-])C(OCc5ccccc5)C4OS(=O)(=O)[O-])C(OCc4ccccc4)C3NS(=O)(=O)[O-])C(OCc3ccccc3)C2OS(=O)(=O)[O-])C(OC)C1NS(=O)(=O)[O-].[Na+].[Na+].[Na+].[Na+].[Na+].[Na+].[Na+].[Na+].[Na+].[Na+].[Na+].[Na+] (stereo not shown) [Compound 249] |  | 136 |  | 225 | inhibition of control and/or VEGF-A-stimulated angiogenesis
3 | C#CCCCOC1OC(COS(=O)(=O)[O-])C(OC2OC(C(=O)[O-])C(OC3OC(COS(=O)(=O)[O-])C(OC4OC(C(=O)[O-])C(OC5OC(COS(=O)(=O)[O-])C(OC6OC(C(=O)[O-])C(OCc7ccccc7)C(OCc7ccccc7)C6OS(=O)(=O)[O-])C(OCc6ccccc6)C5NS(=O)(=O)[O-])C(OC)C4OS(=O)(=O)[O-])C(OC)C3NS(=O)(=O)[O-])C(OCc3ccccc3)C2OS(=O)(=O)[O-])C(OCc2ccccc2)C1NS(=O)(=O)[O-].[Na+].[Na+].[Na+].[Na+].[Na+].[Na+].[Na+].[Na+].[Na+].[Na+].[Na+].[Na+] (stereo not shown) [Compound 252] |  | 121 |  | 171 | inhibition of control and/or VEGF-A-stimulated angiogenesis

Second part, led by results:

Row | IC50 (VEGF-A) [nM] | IC50 (FGF-2) [nM] | IC50 (SDF-1α) [nM] | IC50 (PDGF-β) [nM] | SMILES | inhibition of control and/or VEGF-A-stimulated angiogenesis [1]
4 | 59 | 167 | 865 | 194 | C#CCCCOC1OC(COS(=O)(=O)[O-])C(OC2OC(C(=O)[O-])C(OC3OC(COS(=O)(=O)[O-])C(OC4OC(C(=O)[O-])C(OC5OC(COS(=O)(=O)[O-])C(OC6OC(C(=O)[O-])C(OCc7ccccc7)C(OCc7ccccc7)C6OS(=O)(=O)[O-])C(OC)C5NS(=O)(=O)[O-])C(OCc5ccccc5)C4OS(=O)(=O)[O-])C(OC)C3NS(=O)(=O)[O-])C(OCc3ccccc3)C2OS(=O)(=O)[O-])C(OC)C1NS(=O)(=O)[O-].[Na+].[Na+].[Na+].[Na+].[Na+].[Na+].[Na+].[Na+].[Na+].[Na+].[Na+].[Na+] (stereo not shown) [Compound 246] | inhibition of control and/or VEGF-A-stimulated angiogenesis
5 | 45 | > 100000 | 430 | 1690 | C#CCCCOC1OC(COS(=O)(=O)[O-])C(OC2OC(C(=O)[O-])C(OC3OC(COS(=O)(=O)[O-])C(OC4OC(C(=O)[O-])C(OC5OC(COS(=O)(=O)[O-])C(OC6OC(C(=O)[O-])C(OC)C(OC)C6OS(=O)(=O)[O-])C(OCc6ccccc6)C5NS(=O)(=O)[O-])C(OC)C4OS(=O)(=O)[O-])C(OCc4ccccc4)C3NS(=O)(=O)[O-])C(OC)C2OS(=O)(=O)[O-])C(OCc2ccccc2)C1NS(=O)(=O)[O-].[Na+].[Na+].[Na+].[Na+].[Na+].[Na+].[Na+].[Na+].[Na+].[Na+].[Na+].[Na+] (stereo not shown) [Compound 247] | inhibition of control and/or VEGF-A-stimulated angiogenesis
6 | 1670 | 1660 | 22600 | 28000 | C#CCCCOC1OC(COS(=O)(=O)[O-])C(OC2OC(C(=O)[O-])C(OC3OC(COS(=O)(=O)[O-])C(OC4OC(C(=O)[O-])C(OC5OC(COS(=O)(=O)[O-])C(OC6OC(C(=O)[O-])C(OC)C(OC)C6OS(=O)(=O)[O-])C(OC)C5NS(=O)(=O)[O-])C(OC)C4OS(=O)(=O)[O-])C(OC)C3NS(=O)(=O)[O-])C(OC)C2OS(=O)(=O)[O-])C(OC)C1NS(=O)(=O)[O-].[Na+].[Na+].[Na+].[Na+].[Na+].[Na+].[Na+].[Na+].[Na+].[Na+].[Na+].[Na+] (stereo not shown) [Compound 248] | inhibition of control and/or VEGF-A-stimulated angiogenesis
7 |  | 36 |  | 122 | C#CCCCOC1OC(COS(=O)(=O)[O-])C(OC2OC(C(=O)[O-])C(OC3OC(COS(=O)(=O)[O-])C(OC4OC(C(=O)[O-])C(OC5OC(COS(=O)(=O)[O-])C(OC6OC(C(=O)[O-])C(OCc7ccccc7)C(OCc7ccccc7)C6OS(=O)(=O)[O-])C(OCc6ccccc6)C5NS(=O)(=O)[O-])C(OCc5ccccc5)C4OS(=O)(=O)[O-])C(OC)C3NS(=O)(=O)[O-])C(OC)C2OS(=O)(=O)[O-])C(OC)C1NS(=O)(=O)[O-].[Na+].[Na+].[Na+].[Na+].[Na+].[Na+].[Na+].[Na+].[Na+].[Na+].[Na+].[Na+] (stereo not shown) [Compound 255] | inhibition of control and/or VEGF-A-stimulated angiogenesis

Source: US20110166078A1, “OLIGOSACCHARIDE COMPOUNDS FOR USE IN MOBILISING STEM CELLS” (ENDOTIS PHARMA, priority 2008, published 2011)
